Test results published in ChEMBL document CHEMBL1201862, “PubChem BioAssay data set” (2004).
Active and inactive are the calls of the source.

Key:
[1] = rise of 4N DNA cells, HeLa – IC50, dose response (AID 1117351); assay type: functional, cell-based
[2] = rise of 2N DNA cells, HeLa – IC50, dose response (AID 1117349); assay type: functional, cell-based
[3] = Dd2 parasite growth inhibition in erythrocytes – SYBR Green, dry powder samples, set 9, dose response (AID 1159568); assay type: functional, cell-based
INS1 = test: INS-1E survival protection against cytokine death – cell-based, luminescence, retest, dose response (AID 449756); assay type: functional; settings: Rattus norvegicus;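 also: cell death triggered by IL-1 beta plus TNF-alpha plus IFN-gamma mixture; protective hits raise ATP signal compared with cytokine alone wells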
Streptokinase A = molecular target: T1, Streptokinase A (Streptococcus pyogenes serotype M1, UniProt P10520); test: viability-normalized secreted streptokinase activity reduction – plasminogen activation absorbance, OD405, dose response (AID 1914); assay type: functional, Streptococcus pyogenes M1 GAS;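 also: secreted streptokinase activity via plasminogen activation per viability signal from cell pellet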
T1 sequence (P10520 whole entry): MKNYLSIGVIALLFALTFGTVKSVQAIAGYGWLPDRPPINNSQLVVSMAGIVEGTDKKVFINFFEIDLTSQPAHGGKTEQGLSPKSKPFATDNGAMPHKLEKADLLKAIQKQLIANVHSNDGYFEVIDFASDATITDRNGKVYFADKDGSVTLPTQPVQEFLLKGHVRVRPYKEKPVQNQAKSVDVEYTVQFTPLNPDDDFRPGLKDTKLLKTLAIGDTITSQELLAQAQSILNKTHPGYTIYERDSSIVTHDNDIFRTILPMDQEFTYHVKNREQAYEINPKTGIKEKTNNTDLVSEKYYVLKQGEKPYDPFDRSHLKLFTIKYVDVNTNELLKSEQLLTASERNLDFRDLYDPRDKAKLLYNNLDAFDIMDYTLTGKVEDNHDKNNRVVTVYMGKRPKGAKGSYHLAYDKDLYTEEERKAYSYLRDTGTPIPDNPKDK

[4] = IC50 of Artemis nuclease activity blockers – biochemical, fluorescence intensity, dose response (AID 720701); assay type: functional;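 also: Artemis endonuclease enzyme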
Streptococcus = test: GAS UMAA2166 growth inhibition – luminescence, BacTiterGlo, counter-screen for streptokinase expression inhibitor project, dose response (AID 1915); assay type: functional, organism-based;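 also: potency for reduction of bacterial viability or growth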
[5] = molecular target: Sphingosine 1-phosphate receptor 2 (Homo sapiens, UniProt O95136); test: Dose Response Cell Based Assay for Antagonists of the S1P2 Receptor. [Related pubchem assays: 856, 736 ]; assay type: functional
Sphingosine 1-phosphate receptor 2, sequence (O95136 whole entry): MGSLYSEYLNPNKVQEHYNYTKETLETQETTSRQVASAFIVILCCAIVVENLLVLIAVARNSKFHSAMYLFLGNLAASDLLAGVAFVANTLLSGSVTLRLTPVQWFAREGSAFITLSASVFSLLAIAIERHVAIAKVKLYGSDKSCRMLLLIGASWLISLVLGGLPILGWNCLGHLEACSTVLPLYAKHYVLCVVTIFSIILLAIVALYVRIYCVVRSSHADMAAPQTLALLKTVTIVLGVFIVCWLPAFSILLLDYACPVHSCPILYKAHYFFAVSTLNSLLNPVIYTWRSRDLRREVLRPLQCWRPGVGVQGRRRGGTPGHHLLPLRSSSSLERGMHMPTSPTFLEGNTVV

Vero = test: mammalian cell viability reduction – secondary assay, cytotoxicity control for West Nile virus antiviral project, dose response (AID 1650); assay type: functional; settings: Chlorocebus sabaeus
[6] = test system: Streptococcus sp. 'group A'; test: Streptococcus pyogenes SK(-)GAS viability under kanamycin – luminescence, BacTiterGlo, confirmation, counter-screen for streptokinase expression inhibitor project, dose response (AID 1900); assay type: functional, organism-based
[7] = P. falciparum Dd2 growth inhibitors, dose response, SYBR Green, cherry-picked samples (AID 1159567); assay type: functional, cell-based
[8] = growth inhibition of PfATP4-mutant resistant parasites – NITD609-resistant line, SYBR Green, dry powder, dose response (AID 1159571); assay type: functional, cell-based;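 also: parasites synchronized at ring stage by sorbitol before testing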
[9] = growth inhibition of yeast DHODH-expressing 3D7 parasites – SYBR Green, dry powder samples, dose response (AID 1159570); assay type: functional, cell-based;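 also: parasite growth measured after 72 hours of compound exposure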
[10] = Dd2 malaria parasite growth inhibition potency – SYBR Green, dry powder samples, dose response (AID 1159566); assay type: functional, cell-based;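 also: potency for growth inhibition with lower SYBR green DNA signal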
[11] = toxicity to human HepG2 hepatoma cells – cell-based, plate reader, dry powder samples, cytotoxicity control, dose response (AID 1159569); assay type: functional;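 also: inhibitor potency with signal falling toward the positive control level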
[12] = toxicity to human hepatoma HepG2 cells – cell-based, cherry-picked samples, cytotoxicity control, dose response (AID 1159577); assay type: functional
[13] = molecular target: Glutathione-S-transferase (Schistosoma japonicum, UniProt Q26513); test: GST-antibody interaction or FRET quenching – biochemical, TR-FRET, artefact control for Vif-APOBEC3G degradation inhibitor project, dose response (AID 1117362); assay type: functional
Glutathione-S-transferase, sequence (Q26513 whole entry): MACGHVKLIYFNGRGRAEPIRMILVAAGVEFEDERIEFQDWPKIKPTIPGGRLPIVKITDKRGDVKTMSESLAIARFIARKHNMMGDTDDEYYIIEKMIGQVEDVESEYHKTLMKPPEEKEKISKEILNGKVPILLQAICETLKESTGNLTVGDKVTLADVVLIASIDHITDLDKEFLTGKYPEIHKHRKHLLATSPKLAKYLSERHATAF

[14] = HIV-1 Vif–A3G interaction blockers – biochemical, TR-FRET, GST-Vif 1-94, biotin-A3G peptide, dose response retest, primary screen (AID 1117319); assay type: functional;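 also: TR-FRET signal of purified GST-Vif binding a biotinylated A3G peptide; inhibitors lower the FRET signal by blocking Vif and A3G binding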
[15] = viability loss in Vero cells – cytotoxicity control for Vif-APOBEC3G degradation inhibitor project, dose response (AID 1117358); assay type: functional; settings: Vero
[16] = viability of HCT116 lacking mutant beta-catenin – cell-based, human colon tumor, dose response (AID 1045); assay type: functional;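 also: HCT116 colon tumor cells with beta catenin knocked out; cells exposed to compound for 60 hours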
[17] = viability of PTEN-deleted HCT116 cells – cell-based, HCT116 PTEN knockout, dose response (AID 1047); assay type: functional;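 also: HCT116 colon tumor cells with PTEN knocked out; cells exposed to compound for 60 hours before readout; potency for loss of cell viability measured by luminescence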
[18] = Luminescence Cell-Based Dose Retest to Confirm Inhibitors of Cancer Stem Cells. [Related pubchem assays (depositor defined):AID2717, AID2721]; assay type: functional; settings: Homo sapiens
Caspase-9 = Caspase-9 (Homo sapiens, UniProt P55211); test: inhibitors of purified CASP9 protease – biochemical, fluorescence, plate reader, cherry-picked samples, selectivity assay for caspase-6 inhibitor project, dose response (AID 743293)
Caspase-9, sequence (P55211 1-315 limits assumed): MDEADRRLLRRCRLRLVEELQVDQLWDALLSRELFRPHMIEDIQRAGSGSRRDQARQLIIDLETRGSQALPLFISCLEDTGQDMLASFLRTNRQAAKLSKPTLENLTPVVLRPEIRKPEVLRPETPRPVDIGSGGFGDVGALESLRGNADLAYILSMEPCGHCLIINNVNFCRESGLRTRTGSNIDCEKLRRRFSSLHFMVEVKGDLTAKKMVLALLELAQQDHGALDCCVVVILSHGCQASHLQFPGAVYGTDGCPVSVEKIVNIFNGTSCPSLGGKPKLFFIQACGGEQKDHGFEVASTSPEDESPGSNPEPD
Caspase-9, sequence (P55211 331-416 limits assumed): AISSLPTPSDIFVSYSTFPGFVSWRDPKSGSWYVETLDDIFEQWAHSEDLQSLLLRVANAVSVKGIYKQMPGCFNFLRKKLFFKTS

Caspase-7 = molecular target: T2, Caspase-7 (Homo sapiens, UniProt P55210); test: caspase-7 enzyme inhibition, selectivity check – biochemical, DEVD-R110 fluorescence, cherry-pick, selectivity assay for caspase-6 inhibitor project, dose response (AID 743295); assay type: functional
T2 sequence (P55210 whole entry): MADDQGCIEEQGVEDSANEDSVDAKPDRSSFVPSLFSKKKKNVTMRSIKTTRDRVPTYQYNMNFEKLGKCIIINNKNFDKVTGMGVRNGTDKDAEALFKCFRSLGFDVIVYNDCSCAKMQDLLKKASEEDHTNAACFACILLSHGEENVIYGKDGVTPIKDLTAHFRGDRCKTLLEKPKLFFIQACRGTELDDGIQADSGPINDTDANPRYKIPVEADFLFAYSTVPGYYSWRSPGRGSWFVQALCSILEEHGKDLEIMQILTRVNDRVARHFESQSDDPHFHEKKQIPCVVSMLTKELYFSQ

Caspase-6 = molecular target: T3, Caspase-6 (Homo sapiens, UniProt P55212); test: inhibition of CASP6 peptide cleavage – biochemical, VEID-R110 fluorescence, cherry-pick, dose response (AID 720632)
T3 sequence (P55212 whole entry): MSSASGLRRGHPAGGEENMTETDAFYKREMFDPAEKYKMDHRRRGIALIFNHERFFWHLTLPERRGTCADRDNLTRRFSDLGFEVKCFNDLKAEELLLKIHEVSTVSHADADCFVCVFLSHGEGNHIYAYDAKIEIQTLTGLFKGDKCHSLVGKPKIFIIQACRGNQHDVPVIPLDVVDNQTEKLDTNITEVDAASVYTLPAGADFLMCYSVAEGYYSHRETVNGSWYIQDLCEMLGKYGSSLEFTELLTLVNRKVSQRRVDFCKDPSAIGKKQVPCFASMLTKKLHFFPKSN

Caspase-8 = Caspase-8 (Homo sapiens, UniProt Q14790); test: inhibitors of purified CASP8 protease – biochemical, Z-IETD-R110 fluorescence, cherry-picked samples, selectivity assay for caspase-6 inhibitor project, dose response (AID 743294)
Caspase-8, sequence (Q14790 217-374 limits assumed): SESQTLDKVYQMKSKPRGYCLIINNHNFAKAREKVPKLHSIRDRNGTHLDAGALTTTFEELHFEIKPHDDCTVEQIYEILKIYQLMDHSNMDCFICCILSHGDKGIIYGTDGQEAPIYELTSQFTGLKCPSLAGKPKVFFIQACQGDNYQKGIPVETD
Caspase-8, sequence (Q14790 385-479 limits assumed): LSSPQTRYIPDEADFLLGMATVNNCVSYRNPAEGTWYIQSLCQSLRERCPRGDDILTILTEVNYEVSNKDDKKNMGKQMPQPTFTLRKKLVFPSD

[19] = molecular target: T4, Tyrosyl-DNA phosphodiesterase 2 (Homo sapiens, UniProt O95551); test: potency against TDP2 phosphodiesterase activity – biochemical, epi absorbance, IC50, dose response (AID 743297)
T4 sequence (O95551 whole entry): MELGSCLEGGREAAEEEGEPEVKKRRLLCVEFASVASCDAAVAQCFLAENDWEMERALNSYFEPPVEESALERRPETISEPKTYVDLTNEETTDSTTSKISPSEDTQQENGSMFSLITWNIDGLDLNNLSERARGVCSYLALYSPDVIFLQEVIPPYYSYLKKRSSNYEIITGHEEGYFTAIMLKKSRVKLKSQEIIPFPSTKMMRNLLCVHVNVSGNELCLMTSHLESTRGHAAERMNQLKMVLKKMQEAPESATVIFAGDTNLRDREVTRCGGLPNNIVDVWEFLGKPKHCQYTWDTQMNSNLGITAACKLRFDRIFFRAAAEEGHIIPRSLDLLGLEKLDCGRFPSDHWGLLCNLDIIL

CC(C)OC(=O)OCOP(=O)(CO[C@H](C)Cn1cnc2c(N)ncnc21)OCOC(=O)OC(C)C
IC50 [1]: > 10 µM (inactive)
IC50 [2]: > 10 µM (inactive)

CCCNC(=O)N1[C@H](CO)[C@H](c2ccc(C#Cc3cccc(F)c3)cc2)[C@@H]1C#N
AC50 [3]: 8.55 µM (active)

O=C(Nc1ccc(F)cc1)N1C[C@@H]2[C@H](c3ccccc31)[C@@H](CO)N2Cc1ccccc1Cl
AC50 [3]: 12.3 µM (active)

Cc1cc(/C=N/n2cnnc2)c(C)n1-c1ccc(OCc2ccc(Cl)cc2)cc1
AC50 (INS1): 1.15 µM (active)
EC50 (Streptokinase A): 12.9 µM (active)
IC50 [4]: 15.7 µM (active)
EC50 (Streptococcus): 12.3 µM (active)
IC50 [5]: 49.3 µM (not active)
CC50 (Vero): 1.02 µM (active)
EC50 [6]: 5.41 µM (active)

COc1ccccc1C#Cc1ccc([C@@H]2[C@@H](CO)N3CCCCN(CCC(F)(F)F)C[C@H]23)cc1
AC50 [7]: 1.13 µM (active)
AC50 [8]: 0.221 µM (active)
AC50 [9]: 0.418 µM (active)
AC50 [10]: 0.254 µM (active)
AC50 [11]: 9.58 µM (active)
AC50 [12]: 36.5 µM (active)

Cn1c(C(=O)NCCN2CCOCC2)cc2c(=O)n(C)c3ccccc3c21
IC50 [13]: > 100 µM (active)
IC50 [14]: > 100 µM (active)

COC(=O)c1ccc(COc2ccccc2/C=C(\C#N)C(=O)Nc2c(C)cc(C)cc2C)cc1
CC50 [15]: 15.9 µM (active)
EC50 [16]: 5.33 µM (active)
EC50 [17]: 5.83 µM (active)
AC50 [18]: 1.28 µM (active)

O=C1NC(=O)C(=Cc2ccccc2[N+](=O)[O-])S1
AC50 (Caspase-9): 16.1 µM (active)
AC50 (Caspase-7): 9.01 µM (active)
AC50 (Caspase-6): 3.66 µM (active)
AC50 (Caspase-8): 21 µM (active)
IC50 [19]: 13.6 µM (inactive)

O=C1c2ccccc2C(=O)N1OCc1cccc(Cl)c1
IC50 [4]: 2.09 µM (active)
